US12246011B2, “Radiation mitigator and method of use thereof” (Georgetown University, priority 2016, dated 2025)

What was measured:
[1] = test system: YAMC (normal colonic epithelial cell line); test: Colony forming assay (cell survival) after 4 Gy IR; format: cell-based, Murine; conditions: treatment 24 h post-IR at 10 μM, 100 μM and 1 mM, colonies counted at end of 96 h
Experimental: (§1) Gamma radiation: YAMC (normal colonic epithelial cell line) were exposed to 4 Gy gamma ionizing radiation (IR) with air pumped into the chamber during exposure. A Gammacell 40 ^137Cs gamma irradiator was used with a dose rate of 0.8 Gy IR per minute. Dosimetry measurements were performed using Fricke Dosimetry systems. Measured absorbance dose was: Central Dose Rate (0.790 Gy/min±2.9%); 3 o'clock position (0.804 Gy/min±3.8%); and 7 o'clock position (0.808 Gy/min±2.7%). The experiments were performed within 6 months of the dosimetry analysis.
Colony forming assay: Colony forming assay is universally recognized as the gold standard method for measuring the effects of radiation, chemotherapeutic drugs on cell viability, and cell survival. […] At the end of 96 h, cells were fixed and counted for number of colonies formed. The number of colonies formed represents the number of cells survived.
as §1, with “The experiments were performed within 6 months of the dosimetry analysis.” left out

C57BL/6 mice = test: Barrier function study (intestinal epithelial permeability to FITC-dextran) after 14 Gy TBI; format: in vivo; conditions: three doses of 10 mg/kg body weight per day beginning 24 h post-IR, serum FITC 5 d post-IR
Experimental: as §1, with “radiation: 7-week-old C57BL/6 mice” for “radiation: YAMC (normal colonic epithelial cell line)”, “to total body irradiation (TBI) 14” for “to 4”, “chamber during.” for “chamber during exposure.”, “analysis. All IR treatments were begun in the morning. […] All animals received easy access to liquid gel food and water in the cage.” for “analysis.”
Barrier function study: Two hours before euthanasia (5 d post-IR), each mouse was orally administered (gavage) with 100 μL of FITC-dextran (FITC dextran 4; MW 4000) at a dose of 80 mg/100 g body weight. Serum analysis of FITC concentration was performed in triplicate using Synergy Bio TEK plate reader.
Gamma radiation: 7-week-old C57BL/6 mice were exposed to total body irradiation (TBI) 14 Gy gamma ionizing radiation (IR) with air pumped into the chamber during. A Gammacell 40 ^137Cs gamma irradiator was used with a dose rate of 0.8 Gy IR per minute. […] Measured absorbance dose was: Central Dose Rate (0.790 Gy/min±2.9%); 3 o'clock position (0.804 Gy/min±3.8%); and 7 o'clock position (0.808 Gy/min±2.7%). […]

[2] = largest among ARBs; cited from earlier work
[3] = test system: YAMC (normal colonic epithelial cell line); test: Clonogenic assay for self-renewal (spheroid formation) after 4 Gy IR; format: cell-based, Murine; conditions: treatment 24 h post-IR at 10 μM, 100 μM and 1 mM, spheroids counted at end of 192 h
Experimental: as §1
Clonogenic assay for self-renewal: Self-renewal is the hallmark for stem cells or stem-like cells. Clonogenic assay or clonal expansion of single cell into spheroids/organoids is the reputed method to analyze cell self-renewal. […] At the end of 192 h, spheroids were counted for quantitative assessment of the number of spheroids formed.
Gamma radiation: YAMC (normal colonic epithelial cell line) were exposed to 4 Gy gamma ionizing radiation (IR) with air pumped into the chamber during exposure. […] Measured absorbance dose was: Central Dose Rate (0.790 Gy/min±2.9%); 3 o'clock position (0.804 Gy/min±3.8%); and 7 o'clock position (0.808 Gy/min±2.7%). […]
Clonogenic assay for self-renewal: Self-renewal is the hallmark for stem cells or stem-like cells. […] At the end of 192 h, spheroids were counted for quantitative assessment of the number of spheroids formed. […]

Compound | YAMC cell survival (number of colonies formed) compared to vehicle treatment [1] | intestinal epithelial permeability to FITC-dextran versus vehicle control (C57BL/6 mice) | volume of distribution [2] | self-renewal ability of YAMC cells (number of spheroids formed) compared to vehicle treatment [3]
CCCc1nc2c(C)cc(-c3nc4ccccc4n3C)cc2n1Cc1ccc(-c2ccccc2C(=O)O)cc1 [telmisartan, Telmisartan] | significantly increased | essentially the same | 500 L | significantly increased
CC1(C)CC(O)CC(C)(C)N1[O] [tempol, 4-hydroxy-2,2,6,6-tetramethylpiperidin-1-oxyl] | significantly increased | essentially the same |  | significantly increased
